“And” between values parts separate entries of the source, which are not always exact repeats. Equal values may be shown once.
System: 648629-189-R-J1-PDC complex spheroids viability
Assay: Anticancer human tumor 648629-189-R-J1-PDC patient-derived bladder carcinoma cell line growth inhibition [CLK]
Settings: for viability, T/C: stronger effect = lower value
How it was run: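 Patient-derived tumor cells grown as complex spheroids with HUVEC endothelial cells and mesenchymal stem cells, treated with drug combinations. Concentrations descend in half-log steps from near clinical Cmax, or from 10 microM if Cmax unknown.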

[1] = curve of first compound, second compound 0.0316 µM
[2] = curve of first compound, second compound 0.1 µM
[3] = curve of first compound, second compound 0.316 µM
[4] = curve of first compound, second compound 1 µM
[5] = curve of first compound, second compound 3.16 µM
[6] = curve of first compound, second compound 10 µM
[7] = second compound 0.0316 µM, first compound 0.0316 µM
[8] = second compound 0.0316 µM, first compound 0.1 µM
[9] = second compound 0.0316 µM, first compound 0.316 µM
[10] = second compound 0.0316 µM, first compound 1 µM
[11] = second compound 0.0316 µM, first compound 3.16 µM
[12] = second compound 0.0316 µM, first compound 10 µM
[13] = second compound 0.1 µM, first compound 0.0316 µM
[14] = second compound 0.1 µM, first compound 0.1 µM
[15] = second compound 0.1 µM, first compound 0.316 µM
[16] = second compound 0.1 µM, first compound 1 µM
[17] = second compound 0.1 µM, first compound 3.16 µM
[18] = second compound 0.1 µM, first compound 10 µM
[19] = second compound 0.316 µM, first compound 0.0316 µM
[20] = second compound 0.316 µM, first compound 0.1 µM
[21] = second compound 0.316 µM, first compound 0.316 µM
[22] = second compound 0.316 µM, first compound 1 µM
[23] = second compound 0.316 µM, first compound 3.16 µM
[24] = second compound 0.316 µM, first compound 10 µM
[25] = second compound 1 µM, first compound 0.0316 µM
[26] = second compound 1 µM, first compound 0.1 µM
[27] = second compound 1 µM, first compound 0.316 µM
[28] = second compound 1 µM, first compound 1 µM
[29] = second compound 1 µM, first compound 3.16 µM
[30] = second compound 1 µM, first compound 10 µM
[31] = second compound 3.16 µM, first compound 0.0316 µM
[32] = second compound 3.16 µM, first compound 0.1 µM
[33] = second compound 3.16 µM, first compound 0.316 µM
[34] = second compound 3.16 µM, first compound 1 µM
[35] = second compound 3.16 µM, first compound 3.16 µM
[36] = second compound 3.16 µM, first compound 10 µM
[37] = second compound 10 µM, first compound 0.0316 µM
[38] = second compound 10 µM, first compound 0.1 µM
[39] = second compound 10 µM, first compound 0.316 µM
[40] = second compound 10 µM, first compound 1 µM
[41] = second compound 10 µM, first compound 3.16 µM
[42] = second compound 10 µM, first compound 10 µM
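For viability, T/C in this document: drug exposure lasted seven days before viability readout; 100% = DMSO vehicle control wells.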

## O=c1[nH]cc(F)c(=O)[nH]1 + CNC(=O)c1ccc(Nc2nc(OC3CCCC3)c3c(-c4ccc5nc(C)oc5c4)c[nH]c3n2)c(OC)c1
[1]
  IC50: 881 nM
[2]
  IC50: 535 nM
[3]
  IC50: < 31.6 nM
[4]
  IC50: < 31.6 nM
[5]
  IC50: < 31.6 nM
[6]
  IC50: < 31.6 nM
[7]
  viability, T/C: 107%
[8]
  viability, T/C: 95.1%
[9]
  viability, T/C: 77.4%
[10]
  viability, T/C: 45.8%
[11]
  viability, T/C: 33.2%
[12]
  viability, T/C: 32.5%
[13]
  viability, T/C: 79.9%
[14]
  viability, T/C: 86.9%
[15]
  viability, T/C: 64.8%
[16]
  viability, T/C: 32.2%
[17]
  viability, T/C: 23.9%
[18]
  viability, T/C: 22.9%
[19]
  viability, T/C: 21%
[20]
  viability, T/C: 23.6%
[21]
  viability, T/C: 22.2%
[22]
  viability, T/C: 11.9%
[23]
  viability, T/C: 12.8%
[24]
  viability, T/C: 10.3%
[25]
  viability, T/C: 15.8%
[26]
  viability, T/C: 18.7%
[27]
  viability, T/C: 15.7%
[28]
  viability, T/C: 11.2%
[29]
  viability, T/C: 9.79%
[30]
  viability, T/C: 9.97%
[31]
  viability, T/C: 21.1%
[32]
  viability, T/C: 20.4%
[33]
  viability, T/C: 18.6%
[34]
  viability, T/C: 10.2%
[35]
  viability, T/C: 10.9%
[36]
  viability, T/C: 10.6%
[37]
  viability, T/C: 17.8%
[38]
  viability, T/C: 14.8%
[39]
  viability, T/C: 17.4%
[40]
  viability, T/C: 11.4%
[41]
  viability, T/C: 11.5%
[42]
  viability, T/C: 9.63%

## O=C(c1cc(Cc2n[nH]c(=O)c3ccccc23)ccc1F)N1CCN(C(=O)C2CC2)CC1 + CN1CCN(c2cc(C(=O)Nc3cc4cc(-c5cnn(C)c5)ccc4cn3)ccn2)CC1
[1]
  IC50: > 10000 nM
[2]
  IC50: > 10000 nM
[3]
  IC50: < 31.6 nM
[4]
  IC50: < 31.6 nM
[5]
  IC50: < 31.6 nM
[6]
  IC50: < 31.6 nM
[7]
  viability, T/C: 105%
[8]
  viability, T/C: 106%
[9]
  viability, T/C: 104%
[10]
  viability, T/C: 100%
[11]
  viability, T/C: 86.5%
[12]
  viability, T/C: 72.1%
[13]
  viability, T/C: 115%
[14]
  viability, T/C: 111%
[15]
  viability, T/C: 110%
[16]
  viability, T/C: 98%
[17]
  viability, T/C: 84.4%
[18]
  viability, T/C: 68.2%
[19]
  viability, T/C: 37.2%
[20]
  viability, T/C: 39.2%
[21]
  viability, T/C: 43.6%
[22]
  viability, T/C: 46%
[23]
  viability, T/C: 42%
[24]
  viability, T/C: 32.6%
[25]
  viability, T/C: 0.41%
[26]
  viability, T/C: 0.25%
[27]
  viability, T/C: 0.62%
[28]
  viability, T/C: 0.21%
[29]
  viability, T/C: 0.92%
[30]
  viability, T/C: 1.08%
[31]
  viability, T/C: 0.08%
[32]
  viability, T/C: 0.44%
[33]
  viability, T/C: 0.12%
[34]
  viability, T/C: 0.15%
[35]
  viability, T/C: 0.79%
[36]
  viability, T/C: 0.38%
[37]
  viability, T/C: 0.08%
[38]
  viability, T/C: 0.14%
[39]
  viability, T/C: 0.72%
[40]
  viability, T/C: 0.15%
[41]
  viability, T/C: 0.23%
[42]
  viability, T/C: 0.5%

## C=C(F)C(=O)N1CCN(c2nc(OCC3CCCN3C)nc3c2CCN(c2cccc4cccc(Cl)c24)C3)CC1CC#N (stereo not given) + CNC(=O)c1ccc(Nc2nc(OC3CCCC3)c3c(-c4ccc5nc(C)oc5c4)c[nH]c3n2)c(OC)c1
[1]
  IC50: 5950 nM
[2]
  IC50: 3810 nM
[3]
  IC50: < 31.6 nM
[4]
  IC50: < 31.6 nM
[5]
  IC50: < 31.6 nM
[6]
  IC50: < 31.6 nM
[7]
  viability, T/C: 110%
[8]
  viability, T/C: 107%
[9]
  viability, T/C: 120%
[10]
  viability, T/C: 106%
[11]
  viability, T/C: 111%
[12]
  viability, T/C: 0.23%
[13]
  viability, T/C: 70.8%
[14]
  viability, T/C: 71.7%
[15]
  viability, T/C: 66.6%
[16]
  viability, T/C: 65%
[17]
  viability, T/C: 60.1%
[18]
  viability, T/C: 0.52%
[19]
  viability, T/C: 26%
[20]
  viability, T/C: 27.9%
[21]
  viability, T/C: 29%
[22]
  viability, T/C: 22.4%
[23]
  viability, T/C: 24.4%
[24]
  viability, T/C: 0.16%
[25]
  viability, T/C: 18.6%
[26]
  viability, T/C: 17.9%
[27]
  viability, T/C: 23%
[28]
  viability, T/C: 20.2%
[29]
  viability, T/C: 20.8%
[30]
  viability, T/C: 0.14%
[31]
  viability, T/C: 18.8%
[32]
  viability, T/C: 19.3%
[33]
  viability, T/C: 19.9%
[34]
  viability, T/C: 19.4%
[35]
  viability, T/C: 19.7%
[36]
  viability, T/C: 0.19%
[37]
  viability, T/C: 21.2%
[38]
  viability, T/C: 18.6%
[39]
  viability, T/C: 18.2%
[40]
  viability, T/C: 19.8%
[41]
  viability, T/C: 19.1%
[42]
  viability, T/C: 0.26%

## CC(=O)O[C@H]1C(=O)[C@@]2(C)[C@H]([C@H](OC(=O)c3ccccc3)[C@]3(O)C[C@H](OC(=O)[C@H](O)[C@@H](NC(=O)c4ccccc4)c4ccccc4)C(C)=C1C3(C)C)[C@]1(OC(C)=O)CO[C@@H]1C[C@@H]2O
Compound 0.0316 µM
  viability, T/C: 10.4% and 11.2%
Compound 0.1 µM
  viability, T/C: 10.1% and 12.7%
Compound 0.316 µM
  viability, T/C: 10.1% and 11.7%
Compound 1 µM
  viability, T/C: 12.9% and 13.5%
Compound 3.16 µM
  viability, T/C: 10.8% and 10.5%
Compound 10 µM
  viability, T/C: 13.3% and 15.2%
Curve of compound
  IC50: < 31.6 nM

## COC1C=CCC(C)C(C)S(=O)(=O)NC(=O)c2ccc3c(c2)N(CC2CCC21)CC1(CCCc2cc(Cl)ccc21)CO3 (stereo not given)
Compound 0.0316 µM
  viability, T/C: 102% and 92.4%
Compound 0.1 µM
  viability, T/C: 91% and 85%
Compound 0.316 µM
  viability, T/C: 77% and 89.5%
Compound 1 µM
  viability, T/C: 79% and 77.1%
Compound 3.16 µM
  viability, T/C: 25.9% and 15.1%
Compound 10 µM
  viability, T/C: 2.88% and 3.41%
Curve of compound
  IC50: 1840 nM and 1650 nM
